Assay results from patent US20140303090A1, “Smac Mimetic Therapy” (TETRALOGIC PHARMACEUTICALS CORPORATION, priority 2013, published 2014).
Like-named read-outs stand apart in the source and are kept apart here.

Tests used:
[1] = molecular target: T1, cIAP1-BUCR (Homo sapiens, UniProt Q13490); assay: cIAP1 auto-ubiquitylation in vitro (Ub transfer by cIAP1-BUCR)
From the text: To assess the E3 ligase activity of IAP antagonist-induced cIAP1-BUCR dimers, we monitored cIAP1 auto-ubiquitylation in vitro.

[2] = system: Xiap−/− murine BMDMs; assay: IL-1β secretion from LPS-primed XIAP knockout bone marrow-derived macrophages; type: cell-based; details: 24 h
Description: We thus evaluated a selection of Smac-mimetics in both LPS-primed wild-type (WT) and XIAP knockout (Xiap^−/−) murine BMDMs to assess their capacity to induce the secretion of IL-1β following treatment with Smac-mimetic (FIG. 4).
WT and Xiap^−/− BMDMs were primed with LPS±the indicated concentration of Smac-mimetics for 24 h. WT BMDM results are presented as the mean±SEM (n=3 biological independent repeats).

[3] = molecular target: cIAP1 BIR3 (Homo sapiens, UniProt Q13490); assay: Fluorescence polarization displacement assay, cIAP1 BIR3
Sequence of cIAP1 BIR3 (Q13490 253-363 limits assumed): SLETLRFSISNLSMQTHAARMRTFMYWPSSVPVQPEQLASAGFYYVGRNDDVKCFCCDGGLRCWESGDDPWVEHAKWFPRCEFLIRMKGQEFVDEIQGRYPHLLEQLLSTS
From the text: (§7) To establish protein-ligand binding affinity, we employed a fluorescence polarization assay. This assay monitored the displacement of an IAP binding motif (IBM)-containing peptide, Abu-RPFK(5-carboxyfluorescein)-NH2, from the Type III BIR domains of cIAP1, cIAP2, XIAP, and ML-IAP.

[4] = molecular target: cIAP1-BUCR dimer (Homo sapiens, UniProt Q13490); assay: Co-immunoprecipitation of differentially-tagged cIAP1-BUCR constructs
Sequence of cIAP1-BUCR dimer (Q13490 260-618 limits assumed): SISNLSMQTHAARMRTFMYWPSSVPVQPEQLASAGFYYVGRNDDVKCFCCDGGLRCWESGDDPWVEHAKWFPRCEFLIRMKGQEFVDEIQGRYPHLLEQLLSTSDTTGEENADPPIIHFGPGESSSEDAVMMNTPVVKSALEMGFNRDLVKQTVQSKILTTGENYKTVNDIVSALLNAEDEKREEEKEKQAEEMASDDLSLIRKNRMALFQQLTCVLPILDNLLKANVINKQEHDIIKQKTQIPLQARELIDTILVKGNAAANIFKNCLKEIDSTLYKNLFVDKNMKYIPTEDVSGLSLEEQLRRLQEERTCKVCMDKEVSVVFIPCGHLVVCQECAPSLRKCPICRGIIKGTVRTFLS
Sequence of cIAP1-BUCR dimer (Q13490 260-618 limits assumed): as above

[5] = Tolerability; details: in vivo
From the text: . Binding of IAP antagonists to cIAP1 proteins induces a conformational rearrangement that exposes the RING domain. Once exposed, the RING domain dimerizes and E3 ubiquitin ligase activity is activated. Using a range of assays that evaluated cIAP1 stability; NF-κB activation; cIAP1 oligomeric state; […]. Birinapant-induced loss of cIAPs correlated with inhibition of TNF-mediated NF-κB activation, caspase activation, tumor cell killing, and tumor regression. Birinapant was well-tolerated. […]. […]; (ii.) decreased affinity for XIAP BIR3; (iii.) decreased ability to inhibit XIAP-dependent NOD signaling, despite its activity in an XIAP-dependent caspase-3 activation assay; and, (iv.) decreased pro-inflammatory IL-1β secretion. […]

[6] = molecular target: T2, GFP-cIAP2 (Homo sapiens, UniProt Q13489); assay: GFP-cIAP2 degradation assay (loss of GFP signal, flow cytometry); type: cell-based; details: read-out: ΔGFP-cIAP2 EC50, 2 h; 2 h; A375 cells
T2 construct: expressed in transfected cells
T2 sequence (Q13489 whole entry): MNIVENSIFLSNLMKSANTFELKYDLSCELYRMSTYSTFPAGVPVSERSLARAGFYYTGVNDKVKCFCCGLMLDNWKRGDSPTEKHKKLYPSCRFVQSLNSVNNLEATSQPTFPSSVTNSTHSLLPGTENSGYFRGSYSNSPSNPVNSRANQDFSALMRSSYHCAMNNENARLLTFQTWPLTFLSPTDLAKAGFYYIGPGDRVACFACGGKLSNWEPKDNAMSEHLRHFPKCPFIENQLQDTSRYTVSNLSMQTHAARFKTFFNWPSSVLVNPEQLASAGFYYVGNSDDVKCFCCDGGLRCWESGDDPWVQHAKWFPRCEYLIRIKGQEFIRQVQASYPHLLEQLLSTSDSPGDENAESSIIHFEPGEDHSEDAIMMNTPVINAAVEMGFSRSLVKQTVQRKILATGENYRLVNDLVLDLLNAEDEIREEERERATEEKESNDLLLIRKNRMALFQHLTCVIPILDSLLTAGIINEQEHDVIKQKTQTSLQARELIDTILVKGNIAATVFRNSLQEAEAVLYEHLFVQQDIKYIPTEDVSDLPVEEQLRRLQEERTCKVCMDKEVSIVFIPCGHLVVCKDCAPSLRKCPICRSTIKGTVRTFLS
From the text: In this assay, treatment of GFP-cIAP-expressing melanoma cell line A375 with Smac mimetic, Compound 15, for two hours, results in degradation of cIAP-1 and cIAP-2 with concomitant loss of GFP-signal.

[7] = system: TNF-mediated NF-κB-luc
[8] = molecular target: T3, GFP-cIAP1 (Homo sapiens, UniProt Q13490); assay: GFP-cIAP1 degradation assay (loss of GFP signal, flow cytometry); type: cell-based
T3 construct: expressed in transfected cells
T3 sequence (Q13490 whole entry): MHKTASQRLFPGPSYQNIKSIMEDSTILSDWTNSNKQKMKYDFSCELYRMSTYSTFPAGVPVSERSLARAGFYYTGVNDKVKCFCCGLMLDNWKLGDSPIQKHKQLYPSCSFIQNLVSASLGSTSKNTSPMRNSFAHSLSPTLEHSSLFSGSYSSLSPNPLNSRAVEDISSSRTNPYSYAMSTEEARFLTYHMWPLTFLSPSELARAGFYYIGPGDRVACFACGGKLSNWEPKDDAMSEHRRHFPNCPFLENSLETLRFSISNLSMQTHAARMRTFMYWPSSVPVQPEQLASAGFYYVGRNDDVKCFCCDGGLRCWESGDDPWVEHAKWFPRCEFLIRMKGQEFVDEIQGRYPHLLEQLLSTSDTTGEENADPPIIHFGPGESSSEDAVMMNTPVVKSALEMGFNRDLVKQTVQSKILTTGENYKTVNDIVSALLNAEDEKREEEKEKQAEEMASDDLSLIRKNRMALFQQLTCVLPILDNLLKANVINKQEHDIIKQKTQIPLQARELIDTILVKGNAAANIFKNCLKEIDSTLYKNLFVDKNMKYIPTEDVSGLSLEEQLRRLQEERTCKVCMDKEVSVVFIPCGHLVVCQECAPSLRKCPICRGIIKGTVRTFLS

[9] = molecular target: XIAP BIR3 (Homo sapiens, UniProt P98170); assay: Fluorescence polarization displacement assay, XIAP BIR3
Sequence of XIAP BIR3 (P98170 241-356 limits assumed): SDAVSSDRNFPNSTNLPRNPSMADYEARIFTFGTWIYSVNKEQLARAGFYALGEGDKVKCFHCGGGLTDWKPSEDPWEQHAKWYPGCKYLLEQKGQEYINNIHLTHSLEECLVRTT
From the text: as §7

[10] = molecular target: T2, GFP-cIAP2; assay: GFP-cIAP2 degradation assay (loss of GFP signal, flow cytometry); type: cell-based; details: read-out: ΔGFP-cIAP2 EC50, 24 h
[11] = molecular target: T1, cIAP1-BUCR; assay: MALLS-SEC analysis of the oligomeric state of cIAP1-BUCR
From the text: With 2 as a positive control, we used MALLS-SEC analysis to characterize the oligomeric state of cIAP1-BUCR in the presence of 1, the mono-D-Abu epimer (3), and the bis-D-Abu diastereomer (4).

[12] = molecular target: T4, ML-IAP BIR (Homo sapiens, UniProt Q96CA5); assay: Fluorescence polarization displacement assay, ML-IAP BIR
T4 sequence (Q96CA5 63-179 limits assumed): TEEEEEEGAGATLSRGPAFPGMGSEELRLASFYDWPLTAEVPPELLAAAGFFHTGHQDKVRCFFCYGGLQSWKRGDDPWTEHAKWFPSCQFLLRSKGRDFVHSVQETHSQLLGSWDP
From the text: as §7

[13] = system: MDP-mediated NF-κB-luc (NOD2); assay: MDP-stimulated NF-kB luciferase reporter gene assay (NOD2 signaling) in HCT116 cells; type: cell-based, human
Description: (§1) To assay effects on XIAP E3 ubiquitin ligase activity manifested as NF-kB activation, we established both DAP- and MDP-stimulated luciferase reporter gene assays in which Smac mimetics are evaluated in cells at a single 10 μM drug concentration. Specifically, we developed stable cell lines with HCT116 cells (human colon cancer) that carry the NF-kB-luciferase reporter gene under the regulation of NF-kB promoter activation elements. The assay was carried out as follows: • 1. HCT116 (3-3) cells were cultured in white wall 96-wells plate (50,000 cells/50 μL/well) for overnight at 37° C. • 2. […] The luciferase activity in each well was measured by using Steady-Glo® Luciferase Assay System (Promega Corp.). 48 μL of luminescence detection reagent was added in each well, followed by brief agitation. The plate was left in dark for 15 minutes and then the luminescence activity was measured by using microplate reader Victor2 (PerkinElmer Life and Analytical Science, Shelton, Conn.). • 4. Calculation:
(§2) Luciferase activity in no ligand (i.e., […]) treatment wells=background (BG)
(§3) Luciferase activity in ligand only treatment wells=positive control (PC)
(§4) Luciferase activity in Smac mimetic (SM)+ligand treatment wells=Test • i) Test<PC
(§5) Inhibitory activity by SM(%)=100×[(PC−Test)/(PC−BG)] • ii) Test>PC
(§6) Activation by SM(%)=100×[(Test−BG)/(PC−BG)]

[14] = system: DAP-mediated NF-κB-luc (NOD1); assay: DAP-stimulated NF-kB luciferase reporter gene assay (NOD1 signaling) in HCT116 cells; type: cell-based, human
Description: as §1, §2, §3, §4, §5, §6

[15] = system: WT murine BMDMs; assay: IL-1β secretion from LPS-primed WT bone marrow-derived macrophages; type: cell-based; details: 24 h
From the text: Given the heightened activity of 2 versus 1 on cIAP2, we speculated that the improved tolerability of 1 might also be associated with reduced antagonism of XIAP functional activity in this system. We thus evaluated a selection of Smac-mimetics in both LPS-primed wild-type (WT) and XIAP knockout (Xiap^−/−) murine BMDMs to assess their capacity to induce the secretion of IL-1β following treatment with Smac-mimetic (FIG. 4).
WT and Xiap^−/− BMDMs were primed with LPS±the indicated concentration of Smac-mimetics for 24 h. WT BMDM results are presented as the mean±SEM (n=3 biological independent repeats). […] Total levels of IL-1β induced by Smac-mimetics in these assays varied but the trend was identical.

[16] = molecular target: cIAP2 BIR3 (Homo sapiens, UniProt Q13489); assay: Fluorescence polarization displacement assay, cIAP2 BIR3
Sequence of cIAP2 BIR3 (Q13489 238-349 limits assumed): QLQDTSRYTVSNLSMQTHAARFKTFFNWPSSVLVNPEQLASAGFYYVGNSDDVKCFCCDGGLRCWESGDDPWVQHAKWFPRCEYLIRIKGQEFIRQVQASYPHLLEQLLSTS
From the text: as §7

[17] = 10 μM Smac mimetic, HCT116 cells

T1 sequence (Q13490 260-618 limits assumed): as the sequence (Q13490 260-618 limits assumed) above

Ub transfer by cIAP1-BUCR (auto-ubiquitylation) [1]: increased
Ki [3]: ~1 nM
co-IP of Flag-tagged cIAP1-BUCR with mbw-tagged cIAP1-BUCR [4]: allowed the co-IP
DC50 [6]: 43 ± 17 nM
EC50 [7]: 8 ± 2 nM
DC50 ([8]; read-out: ΔGFP-cIAP1 EC50, 2 h, 2 h, A375 cells): 13 ± 5 nM
DC50 ([8]; read-out: ΔGFP-cIAP1 EC50, 24 h, 24 h): 4 ± 2 nM
Ki [9]: ~1 nM
DC50 [10]: 27 ± 17 nM
Ki [12]: ~1 nM
Ki [16]: ~1 nM
SMILES: CN[C@@H](C)C(=O)N[C@H](C(=O)N1CCC[C@H]1Cc1c(-c2ccc(-c3c(C[C@@H]4CCCN4C(=O)[C@@H](NC(=O)[C@H](C)NC)C(C)(C)C)c4ccc(F)cc4n3CCO)cc2)n(CCO)c2cc(F)ccc12)C(C)(C)C [Compound A (2), reference compound]
IL-1β secretion in Xiap−/− BMDMs [2]: induced IL-1β secretion
tolerability [5]: poorly tolerated
cIAP1-BUCR dimerization [11]: formation of the higher molecular weight cIAP1-BUCR dimer
Inhibition of MDP-mediated NF-κB-luc, % Inhibition [13, 17]: 99 (+/−1) %
Inhibition of MDP-mediated NF-KB-luc @ 2 h, % Inhibition ([13]; @ 2 h): 99 ± 1%
Inhibition of DAP-mediated NF-κB-luc, % Inhibition [14, 17]: 98 (+/−1) %
Inhibition of DAP-mediated NF-KB-luc @ 2 h, % Inhibition ([14]; @ 2 h): 98 ± 1%
IL-1β secretion from LPS-primed WT BMDMs [15]: capable of inducing IL-1β secretion
